Measurements from patent publication US11331294B2, “Benzoquinone derivative E3330 in combination with chemotherapeutic agents for the treatment of bladder cancer” (Indiana University Research and Technology Corporation, priority 2007, dated 2022).

Experiments:
[1] = test system: RP-B-01, RP-B-02 and T24 cell lines; assay: Alamar blue combination study with cisplatin; type: cell-based, human; settings: combined with increasing concentrations of cisplatin, 72 h
Procedure: FIGS. 30A-30C. […] RP-B-01, RP-B-02, and T24 cell lines were treated with increasing concentrations of cisplatin in combination with a single dose of either APX2009 or APX2014 as indicated (n=3±SE). Cell proliferation was normalized to Saline control and expressed as Fold Change. Combination index (CI) values calculated with Compusyn for combination of APX inhibitors and cisplatin. CI values indicated mainly additivity (0.95-1.2) to synergy (0.8-0.94).
Bladder cancer cell lines (BLCAb001 (RP-B-01) and BLCAb002 (RP-B-02) maintained in RPMI growth medium with 10% FBS were plated at 4,000 cells/well in poly-D-lysine treated 96-well clear bottom black plates and grown overnight in 5% CO2 at 37° C. Cells in monolayer were then treated with increasing concentrations of redox-specific inhibitor APX3330, APX2014 or APX2009 and serially diluted 1:2 in a 5-point dose scheme. For combination studies, cells were treated with both cisplatin and APX compounds to determine efficacy. After 72 hours, fresh RPMI medium with 5% FBS was exchanged, and a fluorescent metabolic indicator, Alamar Blue was added to each well at 10% final concentration. After a 4 hour incubation, plates were read on a Synergy H4 (Bio-Tek) plate reader. […]
APE1/Ref-1 inhibition enhances cisplatin's therapeutic effect. […] Cell proliferation was assessed using Alamar blue 72 h after drug treatment.

UC3 and T24 cells = assay: Incucyte caspase-3/7 apoptosis assay; type: cell-based, human; settings: red fluorescence over time
Procedure: UC3 and T24 cells were plated in 96-well plates at 3,500 cell/well and allowed to attach overnight. Increasing amounts of APX2009 or APX2014 were added to each well along with 1 μM of the caspase reagent (Caspase-3/7 Red, Essen Bioscience) and then the cells were allowed to recover for 2 hours prior to beginning imaging with the Incucyte system (Essen Bioscience). Each well was imaged for phase contrast as well as red fluorescence every 2 hours for 96 hours. The Incucyte software generated movies of the cells following treatment as well as real-time imaging data with red fluorescence normalized to the percent confluency of the well.
To assay for caspase-3/7 mediated apoptosis, the increase in red fluorescence was analyzed over time following the addition of APX2009 and APX2014.

T24 cells = assay: Methylene blue cell growth assay T24; type: cell-based; settings: Homo sapiens, T-24, read-out: cell growth-inhibitory IC50
Procedure: (§1) FIGS. 31A & 31B. Treatment with APE1/Ref-1 inhibitors potently blocks bladder cancer cell proliferation and activated Caspase 3/7. […] The IC50 values for FIG. 31A were determined using the methylene blue assay, n=4. […] T24 and UC3 cells were treated with APX2009 and APX2014 at the IC50 and IC90 and monitored over time for activation of capsase 3/7 by an increase in red fluorescence. Time course graphs are shown in FIG. 31B and representative images at 48 hr are shown in FIG. 32A (described more fully below), n=3-4.
(§2) FIGS. 36A-36H. […] In cytokine-induced T24 and UC3 cells NFκB-driven luciferase (FIG. 36A), STAT3-driven luciferase (FIG. 36B), and AP-1-driven luciferase (FIG. 36C) were quantified and normalized via Renilla following treatment with the corresponding cell growth-inhibitory IC50 concentrations. T24 cells were treated with APX2009 (8.5 μM) and APX2014 (6.5 μM), and UC3 cells were treated with APX2009 (6.1 μM) and APX2014 (4.6 μM) for 24 h. (*-p<0.05 APX treated vs vehicle, n=4). […] In the panels of FIGS. 36F & 36G, co-expression of survivin and APE1/Ref-1 was analyzed in superficial (FIG. 36F) and invasive human bladder tumors (FIG. 36G) in patients, and found nearly universal overlap of positivity in both in human samples. This was also true in cisplatin-refractory patients from the tissue microarray specimens (FIG. 36H). […]

STAT3 = assay: STAT3-driven luciferase reporter; type: cell-based, human; settings: T24 and UC3 cells induced with IL-6, IC50 concentration, 24 h
Procedure: (§3) FIGS. 36A-36H. […] In cytokine-induced T24 and UC3 cells NFκB-driven luciferase (FIG. 36A), STAT3-driven luciferase (FIG. 36B), and AP-1-driven luciferase (FIG. 36C) were quantified and normalized via Renilla following treatment with the corresponding cell growth-inhibitory IC50 concentrations. T24 cells were treated with APX2009 (8.5 μM) and APX2014 (6.5 μM), and UC3 cells were treated with APX2009 (6.1 μM) and APX2014 (4.6 μM) for 24 h. (*-p<0.05 APX treated vs vehicle, n=4). […] In the panels of FIGS. 36F & 36G, co-expression of survivin and APE1/Ref-1 was analyzed in superficial (FIG. 36F) and invasive human bladder tumors (FIG. 36G) in patients, and found nearly universal overlap of positivity in both in human samples. This was also true in cisplatin-refractory patients from the tissue microarray specimens (FIG. 36H).
(§4) The transcriptional activity of NFκB, STAT3, and AP-1 is under redox control by APE1/Ref-1. Therefore, NFκB, STAT3, or AP-1 transcriptional activity was quantified following treatment with APE1/Ref-1 redox inhibitors (FIGS. 36A-36C).

RP-B-01 spheroids = assay: 3D spheroid growth assay RP-B-01; type: cell-based, human; settings: p<0.01
Source text: (§5) RP-B-01 and RP-B-02 cells were resuspended in normal growth media containing 3% Reduced Growth Factor Matrigel (BD Biosciences) at a cell density of 1,500 and 3,000 cells/well, respectively and plated in ultra-low adherence 96-well plates (Corning).
(§6) Spheroids were allowed to form and then treated on days 4, 8, and 12 following plating with media containing 5% serum, 3% Reduced Growth Factor Matrigel, and APE1/Ref-1 inhibitors. Vehicle control, DMSO, was less than 0.01% of the volume, and was equivalent in each well. On Day 15, Alamar blue reagent (LifeTechnologies) was added to each well (10 μL/well) and incubated for 24 hours.
(§7) In order to mimic tumor growth more accurately in a relevant microenvironment and in a more robust model for predicting response to treatment, a three-dimensional (3D) culture model of patient-derived RP-B-01 and RP-B-02 bladder cancer cells was used. Both RP-B-01 and RP-B-02 cell lines are transitional cell carcinoma staged as T4bN1Mx and T2bN0Mx Grade III tumors, respectively.

UC3 cells = assay: Methylene blue cell growth assay UC3; type: cell-based; settings: Homo sapiens, read-out: cell growth-inhibitory IC50
Procedure: as §1, §2

NFκB = assay: NFκB-driven luciferase reporter; type: cell-based, human; settings: T24 and UC3 cells, IC50 concentration, 24 h
Procedure: as §3, §4

survivin and Cyclin D1 = assay: Western blot of survival and proliferation proteins in cells; type: cell-based, human; settings: immunoblot
Procedure: as §3
Whole cell extracts were prepared using RIPA (radioimmunoprecipitation) buffer containing protein inhibitors (1:100 PMSF, 1:100 orthovanadate and 1:100 protease inhibitor). Total protein concentration was determined via Lowry or BCA assay. 10-50 μg/well of each lysate was separated by SDS-PAGE using a 12% SDS-polyacrylamide gel. Blots were blocked with 5% nonfat dry milk in 1×TBS for 1 h and incubated overnight with primary antibodies to either APE1/Ref-1 (1:1000 dilution, Novus, NB-100-116), survivin (1:1000, Cell Signaling), Cyclin D1 (1:500, Abcam), PARP-1 (1:1000, Cell Signaling) or GAPDH (1:5000, Cell Signaling). After blots were washed three-six times with TBS-Tween, blots were incubated with HRP-conjugated secondary mouse antibodies (1:5000, Pierce). After washing three-six times with TBS-Tween, blots were visualized by enhanced chemiluminescence (West Pico/West Femto, Pierce).
For further confirmation of a decrease in NFκB and STAT3 transcriptional activity, levels of survivin and Cyclin D1 were examined Both survivin and Cyclin D1 are known to be downstream targets of NFκB and STAT3. […] However, unlike APE1/Ref-1, survivin expression was primarily nuclear in both urothelial confined and invasive lesions.

bladder cancer cells = assay: BrdU incorporation assay in cultured cells; type: cell-based; settings: IC50 concentration, 24 hours; control 11.2%±0.84
Procedure: To determine the proliferation rate of cells in response to APE1/Ref-1 redox inhibitors, cells were grown in the culture conditions described above and treated with inhibitors as described above, in chamber slides. After 24 hours in culture with inhibitors or vehicle, all cells were treated with 3.1 μg/ml BrdU (in sterile PBS; 0.1%) for one hour. Cells were fixed and permeablized with 4% paraformaldehyde and stained for BrdU incorporation with the antibody and methodology described in the Roche BrdU labeling Kit, (Risch-Rotkreuz, Switzerland), using secondary antibodies. Positive cells were captured on a Leica 6000 fluorescent microscope and were quantified relative to Hoechst positive nuclei (total live cells).
To further characterize this effect, it was analyzed whether this reduced cell number was due to decreases in proliferation, increases in apoptosis, or both.

[2] = test system: SW780, T24, UC3 cell lines; assay: Methylene blue cell growth assay, bladder cancer cell panel; type: cell-based, human
Procedure: as §1
Bladder cancer cell proliferation was inhibited and apoptosis was induced by potent, selective redox inhibitors of APE1/Ref-1.

RP-B-02 spheroids = assay: 3D spheroid growth assay RP-B-02; type: cell-based, human; settings: p<0.05
Source text: as §5, §6, §7

RP-B-01 cells = assay: Alamar blue monolayer assay RP-B-01; type: cell-based, human
Procedure: (§8) Bladder cancer cell lines (BLCAb001 (RP-B-01) and BLCAb002 (RP-B-02) maintained in RPMI growth medium with 10% FBS were plated at 4,000 cells/well in poly-D-lysine treated 96-well clear bottom black plates and grown overnight in 5% CO2 at 37° C. Cells in monolayer were then treated with increasing concentrations of redox-specific inhibitor APX3330, APX2014 or APX2009 and serially diluted 1:2 in a 5-point dose scheme. For combination studies, cells were treated with both cisplatin and APX compounds to determine efficacy. After 72 hours, fresh RPMI medium with 5% FBS was exchanged, and a fluorescent metabolic indicator, Alamar Blue was added to each well at 10% final concentration. After a 4 hour incubation, plates were read on a Synergy H4 (Bio-Tek) plate reader. For each drug dose, background was subtracted and then further normalized to media alone.
(§9) APE1/Ref-1 inhibition enhances cisplatin's therapeutic effect. Cisplatin is the standard of care for bladder cancer, but many patients' tumors are refractory to this therapy. […] To determine this, PDX lines, RP-B-01 and RP-B-02, as well as established cell line, T24, were treated with increasing concentrations of cisplatin in combination with APX compounds (FIGS. 30A-30C). Cell proliferation was assessed using Alamar blue 72 h after drug treatment.

RP-B-02 cells = assay: Alamar blue monolayer assay RP-B-02; type: cell-based, human; settings: 72 h
Procedure: as §8, §9

[3] = test system: subretinal neovascularization (SNV) in vldlr-/- retina; assay: SNV in vldlr-/- knockout mice assay; type: in vivo; settings: antibody injection
Procedure: SNV in vldlr−/− knockout mice assay. […] Experiments were carried out in very-low-density lipoprotein receptor (vldr) knockout mice to determine the effect of APX3330 on inhibition of SNV development in the vldlr−/− mutant. Each animal received a single intravitreal injection of 1 μl volume of BSS as a vehicle control and the fellow eye received 1 μl of […] APX3330. The final concentration of APX3330 was equivalent to approximately 20 μM in the retina. Quantitative measurement of SNV was carried out one week after the treatment in the whole mount retina after lectin-FITC staining. […] The apparent increase of SNV after antibody injection could be due to foreign protein triggered immune response which has been reported before (Tator et al., 2008). APX3330 reduced the number of SNV at a statistically significant level (p<0.01 in paired t-test). […] The Ape1/Ref-1 inhibitor offers a new approach to control angiogenesis for advanced macular degeneration (AMD) treatment.

endothelial cells = assay: In vitro tube formation assay; type: cell-based; settings: dose dependent
Source text: In vitro tube formation assay.

CCC/C(=C\C1=C(OC)C(=O)c2ccccc2C1=O)C(=O)NOC [APX2014]
cellular proliferation when combined with cisplatin [1]: further reduction in cellular proliferation | caspase-3/7 activation (UC3 and T24 cells): dose-dependent increase in caspase activation | IC50 (T24 cells): 6.5 µM | STAT3 transcriptional activity (STAT3): reduced the transcriptional activity of NFκB and STAT3 | relative sensitivity of RP-B-01 cells in 3D culture (RP-B-01 spheroids): significantly more sensitive to APX2014 than APX2009 | IC50 (UC3 cells): 4.6 µM | NFκB transcriptional activity (NFκB): reduced the transcriptional activity of NFκB and STAT3 | expression of c-Myc, Bcl-2, Bcl-XL (survivin and Cyclin D1): No change in expression | expression of survivin and Cyclin D1 (survivin and Cyclin D1): significantly down-regulated | BrdU-positive cells (bladder cancer cells): 7.2%±0.49 | fold lower IC50 than APX3330 [2]: 11 fold | potency in RP-B-02 cells in 3D culture relative to APX3330 (RP-B-02 spheroids): more potent in the RP-B-02 cells than parent compound APX3330

N.N.[Cl][Pt][Cl] [cisplatin]
resistance of RP-B-01 relative to RP-B-02 cells (RP-B-01 cells): at least 3 fold | IC50 (RP-B-01 cells; RP-B-01 cells, 72 h): 1.44 µM | IC50 (RP-B-02 cells): 0.5 µM

AVASTIN®: VEGF antibody [reference compound]
inhibition to the number of SNV [3]: neither AVASTIN® (VEGF antibody) nor bFGF antibody treatment showed any sign of inhibition | formation of blood-vessel-like tubules (endothelial cells): prevented formation of blood-vessel-like tubules
